Results on two compounds are retold here after patent US9474790B2, “Stable, protracted GLP-1/glucagon receptor co-agonists for medical use” (Novo Nordisk A/S, priority 2013, dated 2016).

Data set [1] is described as follows: Chemical stability assessment by RP-UPLC. The class given is physicochemical. As to conditions: 333 μM, 8 mM phosphate buffer pH 7.3, 37° C. vs 5° C. Put shortly:
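Purity loss = (purity after 14 days at 5° C. minus that at 37° C.) relative to the 5° C. value, purity being main-peak area % by RP-UPLC with UV at 215 nm. Samples were 333 μM in 8 mM phosphate, pH 7.3; gradient adjusted for outlying retention times.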

Data set [2] has as its target T1, human GLP-1 receptor (Homo sapiens, UniProt P43220).
T1 construct: expressed in transfected cells; host or cells: BHK cells (parent BHKTS13), clone FCW467-12A/KZ10-1, with CRE luciferase
Description: GLP-1 receptor binding, 125I-GLP-1 displacement SPA on isolated membranes. As to conditions: displacement of 125I-GLP-1 from membranes; read-out: IC50 GLP-1R. The gist of the method: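 Test derivatives, serially diluted, competed with 125I-GLP-1(7-36)NH2 for the human GLP-1 receptor on BHK membranes, read by WGA-bead scintillation proximity after 2 h at 30°C, pH 7.4 HEPES/EGTA/MgCl2 buffer. Final serum albumin was either ≤0.001% or 2.0%; IC50 from non-linear fit.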

pIC50: −log10 of the molar value. Numbered stars: 1 amine (or outer) side, 2 acyl side, 3 side chain; on linkers, the order of the positions; unused ones are H or OH. Bridge positions count the residues as written; N and C are the ends. Square brackets hold non-standard residues; d marks the D form. Side chains are listed from the residue outwards. Peptide text beside a SMILES is read from it. I, II: the chains in the order shown. * marks the point of attachment. C18 diacid = O=C(O)CCCCCCCCCCCCCCCCC(=O)*; γGlu = O=C(O)[C@H](CCC(=O)[*:2])N[*:1]; AEEA = NCCOCCOCC(=O)O; Aib = CC(C)(N)C(=O)O

T1 sequence (P43220 24-463): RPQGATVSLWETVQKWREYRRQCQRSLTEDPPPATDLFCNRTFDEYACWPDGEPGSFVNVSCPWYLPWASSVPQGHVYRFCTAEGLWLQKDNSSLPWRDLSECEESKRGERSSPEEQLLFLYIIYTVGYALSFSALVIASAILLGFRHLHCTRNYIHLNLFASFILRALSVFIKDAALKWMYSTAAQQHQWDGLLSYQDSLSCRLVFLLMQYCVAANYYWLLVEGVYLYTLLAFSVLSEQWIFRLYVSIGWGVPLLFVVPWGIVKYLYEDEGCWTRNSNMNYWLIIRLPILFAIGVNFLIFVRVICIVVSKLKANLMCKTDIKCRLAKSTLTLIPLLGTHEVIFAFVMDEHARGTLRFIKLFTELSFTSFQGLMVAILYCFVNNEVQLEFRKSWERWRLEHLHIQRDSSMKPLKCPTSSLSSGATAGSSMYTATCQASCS

As to `CC(C)C[C@H](NC(=O)[C@H](Cc1c[nH]c2ccccc12)NC(=O)[C@H](CCC(N)=O)NC(=O)[C@@H](NC(=O)[C@H](Cc1ccccc1)NC(=O)[C@H](CCC(=O)O)NC(=O)[C@H](CCCNC(=N)N)NC(=O)[C@H](C)NC(=O)[C@H](CCCNC(=N)N)NC(=O)[C@H](CCCNC(=N)N)NC(=O)C(C)(C)NC(=O)[C@H](CC(=O)O)NC(=O)[C@H](CC(C)C)NC(=O)[C@H](Cc1ccc(O)cc1)NC(=O)[C@H](CCCCN)NC(=O)[C@H](CO)NC(=O)[C@H](CC(C)C)NC(=O)[C@H](CC(=O)O)NC(=O)[C@H](CO)NC(=O)[C@@H](NC(=O)[C@H](Cc1ccccc1)NC(=O)[C@@H](NC(=O)CNC(=O)[C@H](CCC(N)=O)NC(=O)C(C)(C)NC(=O)[C@@H](N)Cc1c[nH]cn1)[C@@H](C)O)[C@@H](C)O)C(C)C)C(=O)N[C@@H](CC(C)C)C(=O)N[C@@H](CCCCNC(=O)CC[C@H](NC(=O)CC[C@H](NC(=O)COCCOCCNC(=O)COCCOCCNC(=O)CC[C@H](NC(=O)CCCCCCCCCCCCCCCCC(=O)O)C(=O)O)C(=O)O)C(=O)O)C(=O)N[C@H](C(N)=O)[C@@H](C)O` [Example 51, N^ε28-[(4S)-4-carboxy-4-[[(4S)-4-carboxy-4-[[2-[2-[2-[[2-[2-[2-[[(4S)-4-carboxy-4-(17-carboxyheptadecanoylamino)butanoyl]amino]ethoxy]ethoxy]acetyl]amino]ethoxy]ethoxy]acetyl]amino]butanoyl]amino]butanoyl]-[Aib2,Leu10,Aib16,Arg20,Glu21,Leu27,Lys28]-Glucagon amide] (H-H[Aib]QGTFTSDLSKYLD[Aib]RRAREFVQWLLK([γGlu-γGlu-AEEA-AEEA-γGlu-C18 diacid])T-NH2; N-terminus assumed), the “Purity loss; 14 days at 37° C.” value in data set [1] turned out to be 3%. Besides, in data set [2], the pIC50 is 9.15.
With `CC(C)C[C@H](NC(=O)[C@H](Cc1ccc(O)cc1)NC(=O)[C@H](CCCCN)NC(=O)[C@H](CO)NC(=O)[C@H](CC(C)C)NC(=O)[C@H](CC(=O)O)NC(=O)[C@H](CO)NC(=O)[C@@H](NC(=O)[C@H](Cc1ccccc1)NC(=O)[C@@H](NC(=O)CNC(=O)[C@H](CCC(N)=O)NC(=O)C(C)(C)NC(=O)[C@@H](N)Cc1c[nH]cn1)[C@@H](C)O)[C@@H](C)O)C(=O)N[C@@H](CCC(=O)O)C(=O)N[C@@H](CO)C(=O)N[C@@H](CCCCN)C(=O)N[C@@H](CCCNC(=N)N)C(=O)N[C@@H](C)C(=O)N[C@@H](CCCNC(=N)N)C(=O)N[C@@H](CCC(=O)O)C(=O)N[C@@H](Cc1ccccc1)C(=O)N[C@H](C(=O)N[C@@H](CCC(N)=O)C(=O)N[C@@H](Cc1c[nH]c2ccccc12)C(=O)N[C@@H](CC(C)C)C(=O)N[C@@H](CC(C)C)C(=O)N[C@@H](CCCCNC(=O)CNC(=O)[C@H](CO)NC(=O)[C@H](CCC(=O)O)NC(=O)CNC(=O)[C@H](CO)NC(=O)CC[C@H](NC(=O)CC[C@H](NC(=O)CCCCCCCCCCCCCCCCC(=O)O)C(=O)O)C(=O)O)C(=O)N[C@H](C(N)=O)[C@@H](C)O)C(C)C` [Example 25, N^ε28-[2-[[(2S)-2-[[(2S)-4-carboxy-2-[[2-[[(2S)-2-[[(4S)-4-carboxy-4-[[(4S)-4-carboxy-4-(17-carboxyheptadecanoylamino)butanoyl]amino]butanoyl]amino]-3-hydroxypropanoyl]amino]acetyl]amino]butanoyl]amino]-3-hydroxypropanoyl]amino]acetyl]-[Aib2,Leu10,Glu15,Lys17,Arg20,Glu21,Leu27,Lys28]-Glucagon amide] (I: H-H[Aib]QGTFTSDLSKYLESKRAREFVQWLLKT-NH2 / II: {C18 diacid-γGlu-γGlu}-SGESG; amide I:28-II:C; N-terminus assumed), in data set [1], the “Purity loss; 14 days at 37° C.” value is recorded as 1%. Besides, in data set [2], the pIC50 was 9.70.
